In PMC12463105, “NSP7 Molecular Degrader Attenuates Coronaviral Infection Through the β‐TrCP1/FBXO5 Axis” (Advanced Science, 2025) one finds IC50 data, which are given here for 25 molecules.

One experiment has as its system SARS-CoV-2 NSP7-HiBiT. Particulars: read-out: NSP7- HiBiT; reduction of NSP7-HiBiT signal; degrader.
The next experiment relates to T1, HCoV-OC43.
T1 construct: ATCC VR-1558
The experiment can be described thus: microbe, parasite or virus in culture. Further details: HCoV-OC43 infection assay, reduction of viral infection. Particulars: Betacoronavirus 1, OC43, read-out: OC43.

For `CCSc1nsc(NC(=O)NCc2ccc(F)cc2)n1` [BC24886, 3-(ethylthio)-5-{3-[(p-fluorophenyl)methyl]ureido}-1,2,4-thiadiazole], the IC50 in the experiment on SARS-CoV-2 NSP7-HiBiT and with HCoV-OC43 was > 100 µM each time.

In the case of `CCSc1nsc(NC(=O)NC[C@H]2CCCO2)n1` [BC24887, 3-(ethylthio)-5-(3-{[(R)-perhydro-2-furyl]methyl}ureido)-1,2,4-thiadiazole], the IC50 in the experiment with SARS-CoV-2 NSP7-HiBiT and with HCoV-OC43 was > 100 µM in each case.

In the case of `CCSc1nsc(NC(=O)Nc2cccc(SC)c2)n1` [BC24888, 3-(ethylthio)-5-{3-[m-(methylthio)phenyl]ureido}-1,2,4-thiadiazole], the IC50 with SARS-CoV-2 NSP7-HiBiT amounted to 9.09 µM; in the experiment on HCoV-OC43, 5.27 µM.

Take `CCSc1nsc(NC(=O)N[C@@H](C)C(=O)OC)n1` [BC24889, methyl (S)-2-{3-[3-(ethylthio)-1,2,4-thiadiazol-5-yl]ureido}propionate]: the IC50 in the experiment on SARS-CoV-2 NSP7-HiBiT and in the experiment with HCoV-OC43 was > 100 µM each time.

On to `CCSc1nsc(NC(=O)NC(C)C)n1` [BC24891, 3-(ethylthio)-5-(3-isopropylureido)-1,2,4-thiadiazole], for which the IC50 in the experiment with SARS-CoV-2 NSP7-HiBiT and with HCoV-OC43 was > 100 µM each time.

As for `CCSc1nsc(NC(=O)N[C@@H](C)CC)n1` [BC24892, 5-{3-[(S)-1-methylpropyl]ureido}-3-(ethylthio)-1,2,4-thiadiazole], the IC50 in the experiment on SARS-CoV-2 NSP7-HiBiT and with HCoV-OC43 was > 100 µM throughout.

Turning to `CCSc1nsc(NC(=O)NCCC(C)C)n1` [BC24893, 3-(ethylthio)-5-(3-isopentylureido)-1,2,4-thiadiazole], the IC50 turned out to be 18.5 µM in the experiment on SARS-CoV-2 NSP7-HiBiT and 13.7 µM in the experiment on HCoV-OC43.

As for `CCSc1nsc(NC(=O)NC2CCCCC2)n1` [BC24894, 5-(3-cyclohexylureido)-3-(ethylthio)-1,2,4-thiadiazole], the figures for the IC50 with SARS-CoV-2 NSP7-HiBiT and in the experiment on HCoV-OC43 were 23.7 µM and 17.5 µM, respectively.

Take `CCSc1nsc(NC(=O)Nc2cccc(F)c2)n1` [BC24895, 3-(ethylthio)-5-[3-(m-fluorophenyl)ureido]-1,2,4-thiadiazole]: the figures for the IC50 in the experiment on SARS-CoV-2 NSP7-HiBiT and in the experiment with HCoV-OC43 were 8.87 µM and 2.53 µM, respectively.

With `CCSc1nsc(NC(=O)NCC(C)C)n1` [BC24896, 3-(ethylthio)-5-(3-isobutylureido)-1,2,4-thiadiazole], the results for the IC50 in the experiment on SARS-CoV-2 NSP7-HiBiT and with HCoV-OC43 were 29.3 µM and 29.9 µM, respectively.

For the molecule `CCOC(=O)CCNC(=O)Nc1nc(SCC)ns1` [BC24897, ethyl 3-{3-[3-(ethylthio)-1,2,4-thiadiazol-5-yl]ureido}propionate], the IC50 with SARS-CoV-2 NSP7-HiBiT and in the experiment on HCoV-OC43 was > 100 µM throughout.

As to `CCSc1nsc(NC(=O)NCCOC)n1` [BC24899, 3-(ethylthio)-5-[3-(2-methoxyethyl)ureido]-1,2,4-thiadiazole], the IC50 in the experiment on SARS-CoV-2 NSP7-HiBiT and in the experiment with HCoV-OC43 was > 100 µM in each case.

As for `CCSc1nsc(NC(=O)NC(C)(C)C)n1` [BC24900, 5-(3-tert-butylureido)-3-(ethylthio)-1,2,4-thiadiazole], the IC50 in the experiment with SARS-CoV-2 NSP7-HiBiT and in the experiment on HCoV-OC43 was > 100 µM in each case.

`CCOC(=O)[C@H](C)NC(=O)Nc1nc(SCC)ns1` [BC24902, ethyl (S)-2-{3-[3-(ethylthio)-1,2,4-thiadiazol-5-yl]ureido}propionate]: the IC50 with SARS-CoV-2 NSP7-HiBiT and in the experiment with HCoV-OC43 was > 100 µM throughout.

In the case of `CCSc1nsc(NC(=O)NCc2cccc(F)c2)n1` [BC24904, 3-(ethylthio)-5-{3-[(m-fluorophenyl)methyl]ureido}-1,2,4-thiadiazole], the IC50 with SARS-CoV-2 NSP7-HiBiT and with HCoV-OC43 was > 100 µM throughout.

Take `CCSc1nsc(NC(=O)Nc2c(C)cccc2C)n1` [BC24905, 3-(ethylthio)-5-[3-(2,6-xylyl)ureido]-1,2,4-thiadiazole]: the IC50 amounted to 22.1 µM with SARS-CoV-2 NSP7-HiBiT and 15.8 µM in the experiment with HCoV-OC43.

As for `CCSc1nsc(NC(=O)NCc2ccc(OC)cc2)n1` [BC24906, 3-(ethylthio)-5-{3-[(p-methoxyphenyl)methyl]ureido}-1,2,4-thiadiazole], the IC50 in the experiment with SARS-CoV-2 NSP7-HiBiT and in the experiment with HCoV-OC43 was > 100 µM each time.

As for `CCSc1nsc(NC(=O)Nc2cccc(F)c2C)n1` [BC24907, 3-(ethylthio)-5-[3-(3-fluoro-2-tolyl)ureido]-1,2,4-thiadiazole], the IC50 with SARS-CoV-2 NSP7-HiBiT was 9.85 µM; in the experiment with HCoV-OC43, 3.36 µM.

As to `CCCCc1ccc(NC(=O)Nc2nc(SCC)ns2)cc1` [BC24908, 5-[3-(p-butylphenyl)ureido]-3-(ethylthio)-1,2,4-thiadiazole], the IC50 came out at 30 µM in the experiment with SARS-CoV-2 NSP7-HiBiT and 18.3 µM in the experiment with HCoV-OC43.

As for `CCSc1nsc(NC(=O)Nc2cc(F)c(F)c(F)c2)n1` [BC24910, 3-(ethylthio)-5-[3-(3,4,5-trifluorophenyl)ureido]-1,2,4-thiadiazole], the figures for the IC50 in the experiment with SARS-CoV-2 NSP7-HiBiT and in the experiment with HCoV-OC43 were 2.23 µM and 0.42 µM, respectively.

As for `CCSc1nsc(NC(=O)Nc2cccc(Cl)c2F)n1` [BC24911, 5-[3-(3-chloro-2-fluorophenyl)ureido]-3-(ethylthio)-1,2,4-thiadiazole], the IC50 in the experiment on SARS-CoV-2 NSP7-HiBiT is 9.72 µM; in the experiment on HCoV-OC43, 8.13 µM.

For `CCSc1nsc(NC(=O)Nc2ccc(C(F)(F)F)cc2)n1` [BC24912, 3-(ethylthio)-5-{3-[p-(trifluoromethyl)phenyl]ureido}-1,2,4-thiadiazole], the IC50 in the experiment with SARS-CoV-2 NSP7-HiBiT amounted to 1.76 µM; with HCoV-OC43, 0.672 µM.

For `CCOC(=O)C1CCC(CNC(=O)Nc2nc(SCC)ns2)CC1` (centres unmarked) [BC24913, ethyl 4-({3-[3-(ethylthio)-1,2,4-thiadiazol-5-yl]ureido}methyl)cyclohexanecarboxylate], the results for the IC50 in the experiment on SARS-CoV-2 NSP7-HiBiT and in the experiment on HCoV-OC43 were > 100 µM and 17.4 µM, respectively.

On to `CCSc1nsc(NC(=O)Nc2ccc3c(c2)CCC3)n1` [BC24915, 3-(ethylthio)-5-[3-(5-indanyl)ureido]-1,2,4-thiadiazole], for which the results for the IC50 in the experiment with SARS-CoV-2 NSP7-HiBiT and in the experiment on HCoV-OC43 were 34 µM and 17.4 µM, respectively.

Regarding `CCSc1nsc(NC(=O)Nc2ccc(OC)cc2C)n1` [BC24916, 3-(ethylthio)-5-[3-(4-methoxy-2-tolyl)ureido]-1,2,4-thiadiazole], the IC50 in the experiment on SARS-CoV-2 NSP7-HiBiT is > 100 µM; with HCoV-OC43, 17.2 µM.
